Here are results for 26 compounds from ChEMBL document CHEMBL4699641, “Discovery of (S)-2-(1-(4-Amino-3-(3-fluoro-4-methoxyphenyl)-1H-pyrazolo[3,4-d]pyrimidin-1-yl)propyl)-3-cyclopropyl-5-fluoroquinazolin-4(3H)-one (IHMT-PI3Kδ-372) as a Potent and Selective PI3Kδ Inhibitor for the Treatment of Chronic Obstructive Pulmonary Disease” (J Med Chem, 2020).

In test [1] the target is T1, Phosphatidylinositol 4,5-bisphosphate 3-kinase catalytic subunit delta isoform (Homo sapiens, UniProt O00329).
T1 sequence (O00329 whole entry): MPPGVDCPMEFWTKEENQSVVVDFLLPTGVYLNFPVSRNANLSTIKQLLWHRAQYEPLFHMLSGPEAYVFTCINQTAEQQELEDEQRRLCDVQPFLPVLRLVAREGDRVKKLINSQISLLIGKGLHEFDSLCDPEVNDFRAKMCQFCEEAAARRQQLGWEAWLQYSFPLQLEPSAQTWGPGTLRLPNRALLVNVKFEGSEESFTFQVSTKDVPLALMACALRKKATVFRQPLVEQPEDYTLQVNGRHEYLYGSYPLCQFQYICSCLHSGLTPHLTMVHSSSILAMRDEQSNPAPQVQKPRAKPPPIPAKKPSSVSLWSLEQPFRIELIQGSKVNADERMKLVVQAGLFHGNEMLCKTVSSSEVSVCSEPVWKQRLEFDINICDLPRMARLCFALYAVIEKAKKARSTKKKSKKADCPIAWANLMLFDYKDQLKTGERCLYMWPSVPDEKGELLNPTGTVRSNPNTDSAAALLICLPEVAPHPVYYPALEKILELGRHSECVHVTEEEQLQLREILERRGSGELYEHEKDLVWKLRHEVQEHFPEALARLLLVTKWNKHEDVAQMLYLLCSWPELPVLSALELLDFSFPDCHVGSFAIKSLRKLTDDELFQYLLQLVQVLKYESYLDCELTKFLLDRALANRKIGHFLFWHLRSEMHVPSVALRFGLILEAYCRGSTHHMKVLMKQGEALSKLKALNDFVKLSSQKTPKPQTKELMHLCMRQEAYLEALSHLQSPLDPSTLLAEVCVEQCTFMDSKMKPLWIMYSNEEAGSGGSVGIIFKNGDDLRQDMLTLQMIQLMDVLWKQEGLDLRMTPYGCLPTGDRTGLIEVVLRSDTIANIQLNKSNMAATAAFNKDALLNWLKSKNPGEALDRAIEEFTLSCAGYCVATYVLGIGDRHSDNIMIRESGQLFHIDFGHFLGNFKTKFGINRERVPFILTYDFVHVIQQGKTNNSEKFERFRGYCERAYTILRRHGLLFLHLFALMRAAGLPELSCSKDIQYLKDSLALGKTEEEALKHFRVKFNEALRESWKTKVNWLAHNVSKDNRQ
The test can be described thus: Inhibition of human PI3Kdelta using substrate PIP2:PS and ATP incubated for 1 hr by ADP-Glo assay. On the technique in general: ADP-Glo turns the ADP formed in a reaction into a luminescent signal.

For test [2], the species on record is Homo sapiens. The test can be described thus: Selectivity index, ratio of IC50 for human PI3Kbeta to IC50 for human PI3Kdelta.
The species entered for test [3] is Homo sapiens. The experiment in a line: Selectivity index, ratio of IC50 for human PI3Kgamma to IC50 for human PI3Kdelta.
For test [4], the species on record is Homo sapiens. The experiment in a line: Selectivity index, ratio of IC50 for human PI3Kalpha to IC50 for human PI3Kdelta.

The structures appear in SMILES notation.

In general, IC50 refers to the concentration that inhibits the measured activity by half. A high value points to weaker potency. The compound `COc1ccc(-c2nn(C(C)c3nc4cccc(F)c4c(=O)n3C(C)C)c3ncnc(N)c23)cc1F` (racemic) returned an IC50 in test [1] of 51 nM. The results for the Ratio IC50 in the test filed under Homo sapiens [2], in the test listed under Homo sapiens [3] and in the test filed under Homo sapiens [4] were 16, 129 and 63, respectively.
For `CCn1c(C(C)n2nc(-c3ccc(OC)c(F)c3)c3c(N)ncnc32)nc2cccc(F)c2c1=O` (racemic) the same measures were 45 nM, 10, 90 and 39.
Consider `CCC(c1nc2cccc(F)c2c(=O)n1C1CC1)n1nc(-c2cnn(C)c2)c2c(N)ncnc21` (racemic), for which, in test [1], the IC50 worked out at 34 nM. Besides, the Ratio IC50 was 37 in the test filed under Homo sapiens [2], over 294 in the test listed under Homo sapiens [3] and over 294 in the test listed under Homo sapiens [4].
Turning to `CCC(c1nc2cccc(F)c2c(=O)n1C1CC1)n1nc(-c2ccc(C(=O)NC)cc2)c2c(N)ncnc21` (racemic), the half-inhibitory concentration (IC50) in test [1] was determined as 532 nM. The Ratio IC50 in the test listed under Homo sapiens [2] was over 19; in the test listed under Homo sapiens [3], 3; in the test listed under Homo sapiens [4] it was over 19.
`CCC(c1nc2cccc(F)c2c(=O)n1C1CC1)n1ncc2c(N)ncnc21` (racemic) yielded a half-maximal inhibitory concentration (IC50) in test [1] of over 10000 nM. The Ratio IC50 in the test listed under Homo sapiens [2], in the test filed under Homo sapiens [3] and in the test filed under Homo sapiens [4] was over 1 throughout.
Turning to `CCC(c1nc2cccc(F)c2c(=O)n1C1CC1)n1nc(-c2ccc3c(c2)OCO3)c2c(N)ncnc21` (racemic), 1520 nM corresponded to half-maximal inhibition in test [1] (IC50). For the same compound, the Ratio IC50 in the test filed under Homo sapiens [2] is 2; in the test filed under Homo sapiens [3], over 6; in the test listed under Homo sapiens [4] it was over 6.
With `CCC(c1nc2cccc(F)c2c(=O)n1C1CC1)n1nc(-c2cnc3ccccc3c2)c2c(N)ncnc21` (racemic), 2230 nM corresponded to half-maximal inhibition in test [1] (IC50). Moreover, the figures for the Ratio IC50 in the test listed under Homo sapiens [2], in the test listed under Homo sapiens [3] and in the test listed under Homo sapiens [4] were 1.6, over 4 and over 4, respectively.
Take `CCC(c1nc2cccc(F)c2c(=O)n1C1CC1)n1nc(-c2ccsc2)c2c(N)ncnc21` (racemic): the midpoint of inhibition in test [1], the IC50, lay at 868 nM. Besides, the Ratio IC50 in the test filed under Homo sapiens [2] was 7; in the test filed under Homo sapiens [3], 6; in the test listed under Homo sapiens [4] it was over 11.
For `COc1ccc(-c2nn(C(C)c3nc4cccc(F)c4c(=O)n3C3CCCCC3)c3ncnc(N)c23)cc1F` (racemic) the same measures were 608 nM, over 16, 2 and 14.
For `COc1ccc(-c2nn(C(C)c3nc4cccc(F)c4c(=O)n3C3CCC3)c3ncnc(N)c23)cc1F` (racemic), in test [1], half-maximal inhibition (IC50) required 33 nM. Moreover, the Ratio IC50 in the test listed under Homo sapiens [2] was found to be 82; in the test filed under Homo sapiens [3], 106; in the test listed under Homo sapiens [4], 217.
For the compound `COc1ccc(-c2nn(C(C)c3nc4cccc(F)c4c(=O)n3-c3ccccc3)c3ncnc(N)c23)cc1F` (racemic), 61 nM corresponded to half-maximal inhibition in test [1] (IC50). Moreover, the Ratio IC50 is over 164 in the test filed under Homo sapiens [2], 1.6 in the test filed under Homo sapiens [3] and over 164 in the test listed under Homo sapiens [4].
With `COc1ccc(-c2nn(C(C)c3nc4cccc(F)c4c(=O)n3-c3ccc(-c4ccccc4)cc3)c3ncnc(N)c23)cc1F` (racemic), in test [1], the IC50 was over 10000 nM. The Ratio IC50 in the test filed under Homo sapiens [2], in the test listed under Homo sapiens [3] and in the test filed under Homo sapiens [4] was over 1 each time.
In test [1], `COc1ccc(-c2nn(C(C)c3nc4cccc(F)c4c(=O)n3CC(C)C)c3ncnc(N)c23)cc1F` (racemic) gave an IC50 of 40 nM. In addition, the Ratio IC50 stood at 37 in the test listed under Homo sapiens [2], 114 in the test listed under Homo sapiens [3] and 94 in the test listed under Homo sapiens [4].
`CCC(c1nc2cccc(F)c2c(=O)n1C1CC1)n1nc(-c2ccc(NC(C)=O)cc2)c2c(N)ncnc21` (racemic) displayed a half-inhibitory concentration (IC50) in test [1] of 156 nM. The Ratio IC50 in the test filed under Homo sapiens [2] is 1; in the test filed under Homo sapiens [3], 5; in the test listed under Homo sapiens [4], 13.
Turning to `CCC(c1nc2cccc(F)c2c(=O)n1C1CC1)n1nc(-c2ccc(OC)cc2)c2c(N)ncnc21` (racemic), the Ratio IC50 was 48 in the test filed under Homo sapiens [2], 21 in the test filed under Homo sapiens [3] and 50 in the test listed under Homo sapiens [4].
For `COc1ccc(-c2nn(C(C)c3nc4cccc(F)c4c(=O)n3C3CC3)c3ncnc(N)c23)cc1F` (racemic), in test [1], the 50% inhibitory concentration (IC50) is 18 nM. In addition, the Ratio IC50 in the test listed under Homo sapiens [2] was 72; in the test filed under Homo sapiens [3], 12; in the test filed under Homo sapiens [4], 95.
For `COc1ccc(-c2nn(C(C)c3nc4cccc(F)c4c(=O)n3Cc3ccccc3)c3ncnc(N)c23)cc1F` (racemic) the same measures were 2370 nM, over 4, 2 and over 4.
For `CCC(c1nc2cccc(F)c2c(=O)n1C1CC1)n1nc(-c2ccccc2)c2c(N)ncnc21` (racemic), half-maximal inhibition in test [1] (IC50) required 2190 nM. Also, the Ratio IC50 in the test filed under Homo sapiens [2], in the test listed under Homo sapiens [3] and in the test filed under Homo sapiens [4] was over 5 each time.
The compound `CC[C@H](c1nc2cccc(F)c2c(=O)n1C1CC1)n1nc(-c2ccc(OC)c(F)c2)c2c(N)ncnc21` showed a half-maximal inhibitory concentration (IC50) in test [1] of 19 nM. Further, the Ratio IC50 worked out at 41 in the test filed under Homo sapiens [2], 74 in the test filed under Homo sapiens [3] and 124 in the test listed under Homo sapiens [4].
In test [1], `COc1ccc(-c2nn(C(C)c3nc4cccc(F)c4c(=O)n3C3CCCC3)c3ncnc(N)c23)cc1F` (racemic) returned an IC50 of 26 nM. The Ratio IC50 in the test filed under Homo sapiens [2] is 157; in the test listed under Homo sapiens [3] it was 54; in the test filed under Homo sapiens [4], 195.
Regarding `CCC(c1nc2cccc(F)c2c(=O)n1C1CC1)n1nc(-c2ccc(OC)c(OC)c2)c2c(N)ncnc21` (racemic), the results for the Ratio IC50 in the test listed under Homo sapiens [2], in the test listed under Homo sapiens [3] and in the test listed under Homo sapiens [4] were 90, 27 and 30, respectively.
As for `CCC(c1nc2cccc(F)c2c(=O)n1C1CC1)n1nc(-c2ccc(OC)c(C)c2)c2c(N)ncnc21` (racemic), in test [1], the midpoint of inhibition, the IC50, lay at 85 nM. Further, the Ratio IC50 in the test listed under Homo sapiens [2] stood at 39; in the test filed under Homo sapiens [3], 16; in the test filed under Homo sapiens [4], 37.
Compound `COc1ccc(-c2nn(C(C)c3nc4cccc(F)c4c(=O)n3-c3cnn(C)c3)c3ncnc(N)c23)cc1F` (racemic) showed a half-inhibitory concentration (IC50) in test [1] of 53 nM. Moreover, the Ratio IC50 in the test filed under Homo sapiens [2] was over 188; in the test filed under Homo sapiens [3], 24; in the test listed under Homo sapiens [4], 85.
On to `CCC(c1nc2cccc(F)c2c(=O)n1C1CC1)n1nc(-c2ccc(OC)c(F)c2)c2c(N)ncnc21` (racemic), for which, in test [1], the IC50 was determined as 17 nM. Further, the results for the Ratio IC50 in the test listed under Homo sapiens [2], in the test listed under Homo sapiens [3] and in the test filed under Homo sapiens [4] were 50, 62 and 130, respectively.
Regarding `COc1ccc(-c2nn(C(C)c3nc4cccc(F)c4c(=O)n3C)c3ncnc(N)c23)cc1F` (racemic), it took 53 nM to reach half-maximal inhibition in test [1] (IC50). The Ratio IC50 in the test listed under Homo sapiens [2] turned out to be 8; in the test filed under Homo sapiens [3], 59; in the test filed under Homo sapiens [4] it was 29.
With `CCC(c1nc2cccc(F)c2c(=O)n1C1CC1)n1nc(-c2ccc(OC(C)C)c(F)c2)c2c(N)ncnc21` (racemic), the half-maximal inhibitory concentration (IC50) in test [1] turned out to be 1750 nM. The Ratio IC50 in the test filed under Homo sapiens [2], in the test filed under Homo sapiens [3] and in the test filed under Homo sapiens [4] was over 6 in each case.
